Experimental data: patent publication US20230399312A1, “SUBSTITUTED PYRIMIDINES AND METHODS OF USE” (THERAVANCE BIOPHARMA R&D IP, LLC, priority 2020, published 2023)

Key:
[1] = test system: TGF-β-stimulated SMAD3 phosphorylation in BEAS-2B cells; experiment: Cellular ALK5 potency assay, inhibition of TGF-β stimulated pSMAD3 formation in BEAS-2B cells; assay type: cell-based; settings: Homo sapiens, pSMAD3, TGF-β 10 ng/mL, read-out: BEAS2B pIC50 (converted)
How it was run: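 Human lung epithelial BEAS-2B cells were preincubated 1 h at 37 °C with compound in HBSS/HEPES/1% BSA, then stimulated 30 min with 10 ng/mL TGF-β. pSMAD3 in lysates was quantified by AlphaLISA relative to untreated stimulated cells; reported as pIC50.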

[2] = target: T1, recombinant human ALK5 (TGF-βR1) protein (Homo sapiens, UniProt P36897); experiment: Biochemical ALK5 (TGF-βR1) assay to measure pKi (LANCE Ultra ULight kinase assay); settings: apparent pKi, converted from pIC50 by Cheng-Prusoff
T1 construct: purchased Life Technologies PR9075A
T1 sequence (P36897 34-503): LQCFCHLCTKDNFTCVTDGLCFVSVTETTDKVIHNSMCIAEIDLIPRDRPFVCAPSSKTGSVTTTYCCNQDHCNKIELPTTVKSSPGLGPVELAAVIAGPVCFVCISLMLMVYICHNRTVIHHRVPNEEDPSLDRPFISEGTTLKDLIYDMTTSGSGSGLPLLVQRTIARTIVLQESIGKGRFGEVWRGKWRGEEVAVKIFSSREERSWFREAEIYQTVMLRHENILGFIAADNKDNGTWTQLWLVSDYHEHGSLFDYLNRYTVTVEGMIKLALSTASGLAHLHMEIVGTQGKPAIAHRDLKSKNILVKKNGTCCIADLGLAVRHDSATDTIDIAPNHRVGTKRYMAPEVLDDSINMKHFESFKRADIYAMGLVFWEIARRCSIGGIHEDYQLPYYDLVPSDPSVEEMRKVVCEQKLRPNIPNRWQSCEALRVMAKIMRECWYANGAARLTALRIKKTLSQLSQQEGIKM
How it was run: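 Europium TR-FRET kinase assay: the enzyme is exposed to compound for 60 min at room temperature, and reaction with ATP runs 60 min at 37 °C. Percent inhibition relative to DMSO and SD-208 controls gives pIC50, which is converted to pKi.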

Compound	Ki [2]	IC50 [1]
Cc1cccc(-c2nccc(Nc3ccnc(Nc4cccc(C(=O)OC5CCNCC5)c4)n3)n2)n1 [Compound 66, 4-piperidyl 3-[[4-[[2-(6-methyl-2-pyridyl)pyrimidin-4-yl]amino]pyrimidin-2-yl]amino]benzoate]	0.398 to 3.16 nM	25.1 to 158 nM
CCOC(=O)Cc1ccc(Nc2nccc(Nc3ccnc(-c4cccc(C)n4)n3)n2)cc1 [Compound 304, ethyl 2-[4-[[4-[[2-(6-methyl-2-pyridyl)pyrimidin-4-yl]amino]pyrimidin-2-yl]amino]phenyl]acetate]	0.398 to 3.16 nM	25.1 to 158 nM
Cc1cccc(-c2nccc(Nc3ccnc(Nc4ccc(CC5CCNC5)cc4)n3)n2)n1 (stereo not shown) [Compound 489, N4-(2-(6-methylpyridin-2-yl)pyrimidin-4-yl)-N2-(4-(pyrrolidin-3-ylmethyl)phenyl)pyrimidine-2,4-diamine]	0.0398 to 0.316 nM	25.1 to 158 nM
Cc1cccc(-c2nccc(Nc3ccnc(Nc4ccc(CN5CC[C@H](O)C5)cc4)n3)n2)n1 [Compound 74, (3S)-1-[[4-[[4-[[2-(6-methyl-2-pyridyl)pyrimidin-4-yl]amino]pyrimidin-2-yl]amino]phenyl]methyl] pyrrolidin-3-ol]	0.0398 to 0.316 nM	25.1 to 158 nM
Cc1cccc(-c2nccc(Nc3ccnc(Nc4ccc(C5CCNCC5)cn4)n3)n2)n1 [Compound 114, N4-[2-(6-methyl-2-pyridyl)pyrimidin-4-yl]-N2-[5-(4-piperidyl)-2-pyridyl]pyrimidine-2,4-diamine]	0.398 to 3.16 nM	200 to 1260 nM
Cc1cccc(-c2nccc(Nc3ccnc(Nc4ccc(CN5CCCC(C(=O)OCC6CNC6)C5)cc4)n3)n2)n1 (stereo not shown) [Compound 318, azetidin-3-ylmethyl 1-[[4-[[4-[[2-(6-methyl-2-pyridyl)pyrimidin-4-yl]amino]pyrimidin-2-yl]amino]phenyl]methyl] piperidine-3-carboxylate]	0.0398 to 0.316 nM	25.1 to 158 nM
Cc1cccc(-c2nccc(Nc3ccnc(Nc4ccc(N5CCN[C@@H](C(=O)O)C5)cc4)n3)n2)n1 [Compound 422, (2R)-4-[4-[[4-[[2-(6-methyl-2-pyridyl)pyrimidin-4-yl]amino]pyrimidin-2-yl]amino]phenyl]piperazine-2-carboxylic acid]	0.0398 to 0.316 nM	200 to 1260 nM
Cc1cccc(-c2nccc(Nc3ccnc(Nc4ccc(C)c(NC(=O)C5CCNCC5)c4)n3)n2)n1 [Compound 128, N-[2-methyl-5-[[4-[[2-(6-methyl-2-pyridyl)pyrimidin-4-yl]amino]pyrimidin-2-yl]amino]phenyl]piperidine-4-carboxamide]	0.0398 to 0.316 nM	≤ 20 nM
COC1(C)CN(Cc2ccc(Nc3nccc(Nc4ccnc(-c5cccc(C)n5)n4)n3)cc2)C1 [Compound 493, N2-[4-[(3-methoxy-3-methyl-azetidin-1-yl)methyl]phenyl]-N4-[2-(6-methyl-2-pyridyl)pyrimidin-4-yl]pyrimidine-2,4-diamine]	0.0398 to 0.316 nM	25.1 to 158 nM
Cc1cccc(-c2nccc(Nc3ccnc(Nc4nc(C(=O)O[C@H]5CCN(C)C5)cs4)n3)n2)n1 [Compound 323, [(3S)-1-methylpyrrolidin-3-yl] 2-[[4-[[2-(6-methyl-2-pyridyl)pyrimidin-4-yl]amino]pyrimidin-2-yl]amino]thiazole-4-carboxylate]	0.398 to 3.16 nM	25.1 to 158 nM
Cc1cccc(-c2nccc(Nc3ccnc(Nc4ccc(CN5CC(C(=O)O[C@@H]6CCN(C)C6)C5)cc4)n3)n2)n1 [Compound 69, [(3R)-1-methylpyrrolidin-3-yl] 1-[[4-[[4-[[2-(6-methyl-2-pyridyl)pyrimidin-4-yl]amino]pyrimidin-2-yl]amino]phenyl]methyl] azetidine-3-carboxylate]	0.0398 to 0.316 nM	25.1 to 158 nM
Cc1cccc(-c2nccc(Nc3ccnc(Nc4ncc(C(=O)OC[C@H]5CCCN5)s4)n3)n2)n1 [Compound 592, [(2R)-pyrrolidin-2-yl]methyl 2-[[4-[[2-(6-methyl-2-pyridyl)pyrimidin-4-yl]amino]pyrimidin-2-yl]amino]thiazole-5-carboxylate]	3.98 to 31.6 nM	25.1 to 158 nM
Cc1cccc(-c2nccc(Nc3ccnc(Nc4ccc(C(=O)O)s4)n3)n2)n1 [Compound 439, 5-[[4-[[2-(6-methyl-2-pyridyl)pyrimidin-4-yl]amino]pyrimidin-2-yl]amino]thiophene-2-carboxylic acid]	0.398 to 3.16 nM	200 to 1260 nM
Cc1cccc(-c2nccc(Nc3ccnc(Nc4ccc(CN5CCCC(C(=O)NC6CNC6)C5)cc4)n3)n2)n1 (stereo not shown) [Compound 214, N-(azetidin-3-yl)-1-[[4-[[4-[[2-(6-methyl-2-pyridyl)pyrimidin-4-yl]amino]pyrimidin-2-yl]amino]phenyl]methyl] piperidine-3-carboxamide]	0.0398 to 0.316 nM	25.1 to 158 nM
Cc1cccc(-c2nc(Nc3ccnc(Nc4ccc(C(=O)NC5CNC5)cc4)n3)c3cccn3n2)n1 [Compound 1034, N-(azetidin-3-yl)-4-[[4-[[2-(6-methyl-2-pyridyl)pyrrolo[2,1-f][1,2,4]triazin-4-yl]amino]pyrimidin-2-yl]amino]benzamide]	0.0398 to 0.316 nM	25.1 to 158 nM
CNC1CCN(c2ccc(Nc3nccc(Nc4ccnc(-c5cc(Cl)ccc5F)n4)n3)cc2)CC1 [Compound 137, N4-[2-(5-chloro-2-fluoro-phenyl)pyrimidin-4-yl]-N2-[4-[4-(methylamino)-1-piperidyl]phenyl]pyrimidine-2,4-diamine]	0.0398 to 0.316 nM	25.1 to 158 nM
Cc1cccc(-c2nccc(Nc3ccnc(Nc4ccc(CN5CCN(C)CC5)cc4)n3)n2)n1 [Compound 305, N2-[4-[(4-methylpiperazin-1-yl)methyl]phenyl]-N4-[2-(6-methyl-2-pyridyl)pyrimidin-4-yl]pyrimidine-2,4-diamine]	0.0398 to 0.316 nM	25.1 to 158 nM

Second part, led by results:

Ki [2]	Compound	IC50 [1]
0.0398 to 0.316 nM	Cc1cccc(-c2nccc(Nc3ccnc(Nc4ccc(C(=O)OC5CCCNCC5)nc4)n3)n2)n1 (stereo not shown) [Compound 596, azepan-4-yl 5-[[4-[[2-(6-methyl-2-pyridyl)pyrimidin-4-yl]amino]pyrimidin-2-yl]amino]pyridine-2-carboxylate]	200 to 1260 nM
≤ 0.0316 nM	Cc1cccc(-c2nccc(Nc3ccnc(Nc4cnn(C5CCCNC5)c4)n3)n2)n1 (stereo not shown) [Compound 373, N4-[2-(6-methyl-2-pyridyl)pyrimidin-4-yl]-N2-[1-(3-piperidyl)pyrazol-4-yl]pyrimidine-2,4-diamine]	200 to 1260 nM
0.0398 to 0.316 nM	Cc1cccc(-c2nccc(Nc3ccnc(Nc4ccc(N5CCN[C@@H](CO)C5)cc4)n3)n2)n1 [Compound 403, (R)-(4-(4-((4-((2-(6-methylpyridin-2-yl)pyrimidin-4-yl)amino)pyrimidin-2-yl)amino)phenyl)piperazin-2-yl)methanol]	25.1 to 158 nM
0.0398 to 0.316 nM	Cc1cccc(-c2nccc(Nc3ccnc(Nc4ccc(C(=O)OCCC5CCNCC5)nc4)n3)n2)n1 [Compound 558, 2-(4-piperidyl)ethyl 5-[[4-[[2-(6-methyl-2-pyridyl)pyrimidin-4-yl]amino]pyrimidin-2-yl]amino]pyridine-2-carboxylate]	25.1 to 158 nM
0.0398 to 0.316 nM	Cc1cccc(-c2nc(Nc3ccnc(Nc4ccc(NC(=O)C5CCNC5)cc4)n3)c3cccn3n2)n1 (stereo not shown) [Compound 1027, N-[4-[[4-[[2-(6-methyl-2-pyridyl)pyrrolo[2,1-f][1,2,4]triazin-4-yl]amino]pyrimidin-2-yl]amino]phenyl]pyrrolidine-3-carboxamide]	25.1 to 158 nM
0.0398 to 0.316 nM	Cc1cccc(-c2nccc(Nc3ccnc(Nc4csc(NC(=O)C5CCNCC5)c4)n3)n2)n1 [Compound 452, N-(4-((4-((2-(6-methylpyridin-2-yl)pyrimidin-4-yl)amino)pyrimidin-2-yl)amino)thiophen-2-yl)piperidine-4-carboxamide]	≤ 20 nM
0.0398 to 0.316 nM	Cc1cccc(-c2nccc(Nc3ccnc(Nc4ccc(CN5CC(C(=O)O)C5)nc4)n3)n2)n1 [Compound 569, 1-[[5-[[4-[[2-(6-methyl-2-pyridyl)pyrimidin-4-yl]amino]pyrimidin-2-yl]amino]-2-pyridyl]methyl]azetidine-3-carboxylic acid]	200 to 1260 nM
0.0398 to 0.316 nM	Cc1cccc(-c2nccc(Nc3ccnc(Nc4ccc(CN5CCNCC5)cc4)n3)n2)n1 [Compound 359, N4-[2-(6-methyl-2-pyridyl)pyrimidin-4-yl]-N2-[4-(piperazin-1-ylmethyl)phenyl]pyrimidine-2,4-diamine]	25.1 to 158 nM
≤ 0.0316 nM	Cc1cccc(-c2nccc(Nc3ccnc(Nc4ccc(C5=CCNC5)cc4)n3)n2)n1 [Compound 331, N2-[4-(2,5-dihydro-1H-pyrrol-3-yl)phenyl]-N4-[2-(6-methyl-2-pyridyl)pyrimidin-4-yl]pyrimidine-2,4-diamine]	≤ 20 nM
